Experimental data taken from paper doi:10.1101/2023.03.15.532718v2, “Bacterial hemophilin homologs and their specific type eleven secretor proteins have conserved roles in heme capture and are diversifying as a family” (biorxiv, 2023).
Like-named read-outs stand apart in the source and are kept apart here.

Legend:
Hpl (hemophilin, Hh Hpl) = target: T1, Hpl (hemophilin, Hh Hpl) (Haemophilus haemolyticus, UniProt A0A0M3G7Q5); test: biochemical; assay type: binding
T1 construct: gene AAX18_03525; signal peptide omitted, expressed in E. coli cytoplasm as previously described, apo-protein by acid acetone; strain BW1 printed for the secretion clone only
T1 sequence (A0A0M3G7Q5 entry or part of it): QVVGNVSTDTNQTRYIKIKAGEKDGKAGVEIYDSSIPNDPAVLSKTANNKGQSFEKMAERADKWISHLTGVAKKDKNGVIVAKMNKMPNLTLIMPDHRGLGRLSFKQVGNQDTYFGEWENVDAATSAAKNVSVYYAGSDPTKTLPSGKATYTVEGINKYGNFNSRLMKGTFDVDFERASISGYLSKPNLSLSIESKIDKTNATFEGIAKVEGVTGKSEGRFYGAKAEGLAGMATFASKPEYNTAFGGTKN

Ab HphA = target: T2, Ab HphA (Acinetobacter baumannii, UniProt A0A059ZRB8); test: biochemical; parameters: UV-visible absorbance titration of porphyrin with protein, 1:1 fit with ligand depletion, 21 C pH 8.0
T2 construct: signal peptide omitted, expressed in E. coli cytoplasm, apo-protein
T2 sequence (A0A059ZRB8 whole entry): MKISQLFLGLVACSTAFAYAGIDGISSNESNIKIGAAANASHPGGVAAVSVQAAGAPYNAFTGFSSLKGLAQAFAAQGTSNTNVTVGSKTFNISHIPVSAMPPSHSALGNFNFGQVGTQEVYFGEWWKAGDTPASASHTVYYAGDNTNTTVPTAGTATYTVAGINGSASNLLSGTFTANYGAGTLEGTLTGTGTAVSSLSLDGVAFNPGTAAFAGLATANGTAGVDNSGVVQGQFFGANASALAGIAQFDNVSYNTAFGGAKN
Protocol: Hemin binding measurements in absorbance mode were made by successive additions of apo-protein (∼0.4 mM stock) into porphyrin solution (1.5 µM) in 20 mM Tris-HCl, pH 8 at 21°C. All binding experiments were performed at 21°C. Data were fitted to a 1:1 binding model accounting for ligand depletion, where Fobs is fluorescence signal, F0 is the starting [drawing 1] fluorescence, Fsat is a scaling factor for fluorescence at saturation, L and M are the ligand and macromolecule concentrations, respectively, and Kd is the equilibrium dissociation constant. Data were fitted using GNUPLOT version 4.6. […] Here, SSbest is the sum-of-squares for the fit with all parameters floated; Dfn and Dfd are the degrees of freedom in the numerator and denominator, respectively, for calculation of F. The Kd value was then fixed at values above or below the best-fit Kd until fits exceeded the threshold sum-of-squares. To determine a lower limit of Kd that we could expect to fit from absorbance measurements we simulated data for different Kd values with Gaussian noise added to give fits with SSbest that matched our experimental data. […] Titration of hemophilin homologues with hemin. […] A) Spectra recorded after addition of H. haemolyticus Hpl to a final concentration in the range 0.3–4.5 µM. B) Spectra recorded after addition of A. baumannii HphA to a final concentration in the range 0.4–3.8 µM. […]

BSA = target: T3, BSA (Bos taurus, UniProt P02769); test: UV-visible absorption titration, […] fit; assay type: binding; settings: 20 mM Tris-HCl pH 8.0, 21 °C, brackets 95% confidence interval
T3 construct: gene ALB
T3 sequence (P02769 25-607): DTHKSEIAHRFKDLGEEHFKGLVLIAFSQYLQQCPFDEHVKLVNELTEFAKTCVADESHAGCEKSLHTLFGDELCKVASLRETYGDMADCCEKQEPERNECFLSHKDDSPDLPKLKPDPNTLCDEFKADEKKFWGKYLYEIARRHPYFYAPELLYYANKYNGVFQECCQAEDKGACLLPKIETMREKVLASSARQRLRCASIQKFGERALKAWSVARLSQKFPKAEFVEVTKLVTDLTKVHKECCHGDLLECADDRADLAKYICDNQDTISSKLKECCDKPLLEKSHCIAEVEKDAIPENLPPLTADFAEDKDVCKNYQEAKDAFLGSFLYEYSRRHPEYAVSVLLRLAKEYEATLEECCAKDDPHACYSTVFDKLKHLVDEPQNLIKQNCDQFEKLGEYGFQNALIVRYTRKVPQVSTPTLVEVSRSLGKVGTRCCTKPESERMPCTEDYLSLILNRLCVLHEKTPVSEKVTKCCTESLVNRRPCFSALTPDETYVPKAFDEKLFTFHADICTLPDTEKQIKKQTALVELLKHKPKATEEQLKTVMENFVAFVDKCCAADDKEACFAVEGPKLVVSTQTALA

CrpC (Xc CrpC) = target: T4, CrpC (Xc CrpC) (Xenorhabdus cabanillasii, UniProt A0A3D9UFK6); assay type: binding; settings: 20 mM Tris-HCl pH 8.0, 21 °C, brackets 95% confidence interval
T4 construct: gene BDD26_3141; residues 23-238, signal peptide omitted, His6 tag cut by TEV leaving N-terminal Gly-His-Met, E. coli Rosetta-2, apo as purified; HGB2490 is the authors' collection number
T4 sequence (A0A3D9UFK6 entry or part of it): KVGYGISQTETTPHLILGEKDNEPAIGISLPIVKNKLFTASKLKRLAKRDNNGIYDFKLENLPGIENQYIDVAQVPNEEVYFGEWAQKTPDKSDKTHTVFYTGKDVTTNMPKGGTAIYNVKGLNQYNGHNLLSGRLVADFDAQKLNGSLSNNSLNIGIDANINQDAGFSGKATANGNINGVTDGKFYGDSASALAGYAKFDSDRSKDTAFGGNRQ

HrpC (Xn HrpC) = target: T5, HrpC (Xn HrpC) (Xenorhabdus nematophila, UniProt D3VG73); assay type: binding; settings: 20 mM Tris-HCl pH 8.0, 21 °C, brackets 95% confidence interval
T5 construct: gene XNC1_0075; residues 23-247, signal peptide omitted, His6 tag cut by TEV leaving N-terminal Gly-His-Met, E. coli Rosetta-2, apo-protein by RP-HPLC
T5 sequence (D3VG73 entry or part of it): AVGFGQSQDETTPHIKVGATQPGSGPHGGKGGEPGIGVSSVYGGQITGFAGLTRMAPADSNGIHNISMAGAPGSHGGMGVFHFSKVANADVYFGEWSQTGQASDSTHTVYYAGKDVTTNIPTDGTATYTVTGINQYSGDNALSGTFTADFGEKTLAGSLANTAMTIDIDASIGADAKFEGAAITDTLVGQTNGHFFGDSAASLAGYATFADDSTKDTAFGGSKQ

| Compound | Kd (Hpl (hemophilin, Hh Hpl)) [nM] | Kd (Ab HphA) [nM] | Kd (BSA) | Kd (CrpC (Xc CrpC)) | Kd (HrpC (Xn HrpC)) [nM] | Kd (BSA; apparent Kd) | Kd (CrpC (Xc CrpC); apparent Kd) | Kd (HrpC (Xn HrpC); b21 prints both nM and µM for this value, table nM) [nM] |
| --- | --- | --- | --- | --- | --- | --- | --- | --- |
| C=CC1=C(C)c2cc3[nH]c(cc4nc(cc5[nH]c(cc1n2)c(C)c5CCC(=O)O)C(CCC(=O)O)=C4C)c(C)c3C=C [PPIX] | 70 | ≤ 15 | 11 (6–14) × 10^3 nM | 7 (3–11) × 10^3 nM | 20 | – | – | – |
| C=CC1=C(C)C2=Cc3c(C=C)c(C)c4[n]3[Fe]([Cl])[n]3c(c(C)c(CCC(=O)O)c3=CC3=NC(=C4)C(C)=C3CCC(=O)O)=CC1=N2 [hemin] | – | – | – | – | – | 2 (1–5) × 10^3 nM | 5 (1–9) × 10^3 nM | 20 |
